Here are results for one substance from US20100022401A1, “Avidin-like proteins from symbiotic bacteria” (LICENTIA OY, priority 2004, published 2010).

A short description of data set [1]: Fluorescent biotin conjugate dissociation assay. Type of data set: binding. The procedure: FIG. 2 Biotin dissociation analysis. (A) The [3H]biotin dissociation rate constant was measured at different temperatures. The values for streptavidin are from Klumb et al. (Klumb et al., 1998). The scale of the Y axis is logarithmic. (B) Release of fluorescent biotin conjugate from avidins was studied as a function of time in the presence of excess D-biotin at 50° C.
Ligand binding properties were studied both by [3H]biotin assay and fluorescent biotin conjugate assay. The dissociation rate constant of [3H]biotin (Amersham) from the bradavidins and avidin was measured at various temperatures as described in detail previously (Klumb et al., 1998). According to the results, (Table I, FIG. 2) the faster dissociation rate measured from bradavidin indicates weaker affinity toward the radiobiotin than those of avidin and streptavidin. The dissociation rate of a fluorescent biotin conjugate (ArcDia BF560™-biotin) was measured as previously described (Hytönen et al., 2004a) at 50° C.
The apparent molecular mass is indicated and followed by the theoretical mass in brackets. Transition temperature (Tr) indicates the temperature in which half of the protein is tetrameric and half monomeric in the absence (first value) and presence (second value) of biotin. In addition to the measured dissociation rate constant (kdiss), the release percentage of the fluorescent biotin conjugate in one hour in the presence of excess free biotin is indicated. Calculated isoelectrical point (pI) and the number of cysteine residues per monomer are also indicated.

For data set [2] the following is noted: values from Bayer et al., 1996, cited from earlier work.
The conditions of data set [3]: radio-biotin; streptavidin values from Klumb et al., 1998; cited from earlier work.

Where two headings read alike, the source gives them in different places. Marks after values point to notes of the source that are not given here.

On to “Streptavidin: bacterial analog for avidin from S. avidinii (SEQ ID NO:7) [reference compound]”, for which the Fluorescent biotin kdiss in data set [1] (ArcDia BF560-biotin, 50° C.) is 7.2e-06 s⁻¹. Moreover, the “Fluorescent biotin conjugate dissociation (in words)” value in data set [1] (fluorescent biotin conjugate as ligand) was “very slow and small release”. The “Release 1 h of fluorescent biotin conjugate” value in data set [1] (one hour, presence of excess free biotin, 50° C.) worked out at 5.1%. In addition, the “Heat treatment SDS-PAGE Tr (transition temperature)” value in data set [2] (absence of biotin) was 72^a ° C; in data set [2] (presence of biotin) it was 100^a ° C. Moreover, the “[3H]biotin dissociation rate (in words)” value in data set [3] is on record as “fell between these two”.
